Data from patent US9550739B2, “Molecules having certain pesticidal utilities, and intermediates, compositions, and processes related thereto” (priority 2014, dated 2017).

How the values were obtained:
Assay type in all cases: in vivo
[1] = system: Yellow Fever Mosquito (Aedes aegypti, AEDSAE) ("YFM"); details: about 1 day-old larvae, 4000 ppm master solution diluted, 3 days, room temperature
Method: Certain molecules disclosed in this document were tested against YFM using procedures described in the following paragraph. In the reporting of the results, the “YFM Rating Table” was used (See Table Section).
Master plates containing 400 μg of a molecule dissolved in 100 μL of dimethyl sulfoxide (DMSO) (equivalent to a 4000 ppm solution) are used. A master plate of assembled molecules contains 15 μL per well. To this plate, 135 μL of a 90:10 water:acetone mixture is added to each well. A robot (Biomek® NXP Laboratory Automation Workstation) is programmed to dispense 15 μL aspirations from the master plate into an empty 96-well shallow plate (“daughter” plate). There are 6 reps (“daughter” plates) created per master. The created daughter plates are then immediately infested with YFM larvae.
The day before plates are to be treated, mosquito eggs are placed in Millipore water containing liver powder to begin hatching (4 g. into 400 mL). After the daughter plates are created using the robot, they are infested with 220 μL of the liver powder/larval mosquito mixture (about 1 day-old larvae). After plates are infested with mosquito larvae, a non-evaporative lid is used to cover the plate to reduce drying. Plates are held at room temperature for 3 days prior to grading. After 3 days, each well is observed and scored based on mortality.

[2] = system: Cabbage Looper (Trichoplusia ni, TRIPNI) ("CL"); test: Bioassays on Cabbage Looper (CL), 128-well diet tray assay; details: for mortality at 50 µg/cm2: Trichoplusia ni, 168 h, read-out: CL % Control (or Mortality) rating
Method: (§1) Certain molecules disclosed in this document were tested against BAW and CEW using procedures described in the following examples. In the reporting of the results, the “BAW & CL Rating Table” was used (See Table Section).
Bioassays on CL were conducted using a 128-well diet tray assay. one to five second instar CL larvae were placed in each well (3 mL) of the diet tray that had been previously filled with 1 mL of artificial diet to which 50 μg/cm^2 of the test compound (dissolved in 50 μL of 90:10 acetone-water mixture) had been applied (to each of eight wells) and then allowed to dry. Trays were covered with a clear self-adhesive cover and held at 25° C., 14:10 light-dark for five to seven days. Percent mortality was recorded for the larvae in each well; activity in the eight wells was then averaged. The results are indicated in the table entitled “Table ABC: Biological Results” (See Table Section).

[3] = system: Beet Armyworm (Spodoptera exigua, LAPHEG) ("BAW"); test: Bioassays on Beet Armyworm (BAW), 128-well diet tray assay; details: second instar BAW larvae, 50 μg/cm^2 on artificial diet, five to seven days, 25° C.; for mortality at 50 µg/cm2: Spodoptera exigua, 168 h, read-out: BAW % Control (or Mortality) rating
Method: as §1
Bioassays on BAW were conducted using a 128-well diet tray assay. one to five second instar BAW larvae were placed in each well (3 mL) of the diet tray that had been previously filled with 1 mL of artificial diet to which 50 μg/cm^2 of the test compound (dissolved in 50 μL of 90:10 acetone-water mixture) had been applied (to each of eight wells) and then allowed to dry. Trays were covered with a clear self-adhesive cover and held at 25° C., 14:10 light-dark for five to seven days. Percent mortality was recorded for the larvae in each well; activity in the eight wells was then averaged. The results are indicated in the table entitled “Table ABC: Biological Results” (See Table Section).

Compound | YFM % Control (or Mortality) rating [1] | mortality at 50 µg/cm2 [2] [%] | mortality at 50 µg/cm2 [3] [%] | CL % Control (or Mortality) rating ([2]; second instar CL larvae, 50 μg/cm^2 on artificial diet, five to seven days, 25° C.) | BAW % Control (or Mortality) rating [3]
O=C(NCc1ccc(-c2ncn(-c3ccc(OC(F)(F)F)cc3)n2)cc1)c1cccc(-c2ccccc2)c1 [F57, N-(4-(1-(4-(trifluoromethoxy)phenyl)-1H-1,2,4-triazol-3-yl)benzyl)-[1,1′-biphenyl]-3-carboxamide] | D (No activity noticed in this bioassay) | 50 to 100 | 0 |  | 
COc1ccccc1-c1cccc(C(=O)Nc2ccc(-c3ncn(-c4ccc(OC(C)C)cc4)n3)cc2)c1 [F5, N-(4-(1-(4-isopropoxyphenyl)-1H-1,2,4-triazol-3-yl)phenyl)-2′-methoxy-[1,1′-biphenyl]-3-carboxamide] | B (More than 0-Less than 80) | 50 to 100 | 50 to 100 |  | 
6-Methoxy-N-(4-(1-(4-(trifluoromethoxy)phenyl)-1H-1,2,4-triazol-3-yl)phenethyl)-[1,1′-biphenyl]-3-carboxamide [F56] | A (80-100) |  |  | A (50-100) | A (50-100)
COc1ccccc1-c1cc(C(=O)Nc2ccc(-c3ncn(-c4ccc(OC(C)C)cc4)n3)cc2)ccc1F [F4, 6-Fluoro-N-(4-(1-(4-isopropoxyphenyl)-1H-1,2,4-triazol-3-yl)phenyl)-2′-methoxy-[1,1′-biphenyl]-3-carboxamide] | B (More than 0-Less than 80) | 50 to 100 | 50 to 100 |  | 
COc1ccccc1-c1cc(C(=O)N(CC2CC2)c2ccc(-c3ncn(-c4ccc(OC(F)(F)F)cc4)n3)cc2)ccc1F [F66, N-(cyclopropylmethyl)-6-fluoro-2′-methoxy-N-(4-(1-(4-(trifluoromethoxy)phenyl)-1H-1,2,4-triazol-3-yl)phenyl)-[1,1′-biphenyl]-3-carboxamide] | D (No activity noticed in this bioassay) | 50 to 100 | 50 to 100 |  | 
Cc1ccccc1-c1cc(C(=O)NCCc2ccc(-c3ncn(-c4ccc(OC(F)(F)F)cc4)n3)cc2)ccc1F [F53, 6-Fluoro-2′-methyl-N-(4-(1-(4-(trifluoromethoxy)phenyl)-1H-1,2,4-triazol-3-yl)phenethyl)-[1,1′-biphenyl]-3-carboxamide] | A (80-100) | 50 to 100 | 50 to 100 |  | 
O=C(Nc1ccc(-c2ncn(-c3ccc(OC(F)(F)F)cc3)n2)cc1)c1cc(-c2ccccc2)ccc1F [F48, 4-Fluoro-N-(4-(1-(4-(trifluoromethoxy)phenyl)-1H-1,2,4-triazol-3-yl)phenyl)-[1,1′-biphenyl]-3-carboxamide] | D (No activity noticed in this bioassay) | 50 to 100 | 0 |  | 
O=C(Nc1ccc(-c2ncn(-c3ccc(C(F)(F)F)cc3)n2)cc1)c1ccccn1 [F68, N-(4-(1-(4-(trifluoromethyl)phenyl)-1H-1,2,4-triazol-3-yl)phenyl)picolinamide] | D (No activity noticed in this bioassay) | 0 | 0 to 50 |  | 
Cc1ccccc1-c1cc(F)cc(C(=O)Nc2ccc(-c3ncn(-c4ccc(OC(F)(F)F)cc4)n3)cc2)c1 [F39, 5-Fluoro-2′-methyl-N-(4-(1-(4-(trifluoromethoxy)phenyl)-1H-1,2,4-triazol-3-yl)phenyl)-[1,1′-biphenyl]-3-carboxamide] | D (No activity noticed in this bioassay) | 50 to 100 | 50 to 100 |  | 
O=C(Nc1ccc(-c2ncn(-c3ccc(OC(F)(F)F)cc3)n2)cc1)c1cccc(-c2ccccc2OC(F)(F)F)c1 [F1, 2′-(Trifluoromethoxy)-N-(4-(1-(4-(trifluoromethoxy)phenyl)-1H-1,2,4-triazol-3-yl)phenyl)-[1,1′-biphenyl]-3-carboxamide] | D (No activity noticed in this bioassay) | 50 to 100 | 0 |  | 
Cc1ccccc1-c1cccc(C(=O)Nc2ccc(-c3ncn(-c4ccc(OC(F)(F)F)cc4)n3)cc2)n1 [F33, 6-(o-Tolyl)-N-(4-(1-(4-(trifluoromethoxy)phenyl)-1H-1,2,4-triazol-3-yl)phenyl)picolinamide] | D (No activity noticed in this bioassay) | 50 to 100 | 0 |  | 
Cc1ccccc1-c1cc(F)cc(C(=O)Nc2ccc(-c3ncn(-c4ccc(OC(F)(F)C(F)(F)F)cc4)n3)cc2)c1 [F42, 5-Fluoro-2′-methyl-N-(4-(1-(4-(perfluoroethoxy)phenyl)-1H-1,2,4-triazol-3-yl)phenyl)-[1,1′-biphenyl]-3-carboxamide] | D (No activity noticed in this bioassay) | 50 to 100 | 0 |  | 
Cc1ccccc1-c1cc(C(=O)Nc2ccc(-c3ncn(-c4ccc(C(F)(F)F)cc4)n3)cc2)ccc1F [F58, 6-Fluoro-2′-methyl-N-(4-(1-(4-(trifluoromethyl)phenyl)-1H-1,2,4-triazol-3-yl)phenyl)-[1,1′-biphenyl]-3-carboxamide] | D (No activity noticed in this bioassay) | 50 to 100 | 50 to 100 |  | 
Cc1cccc(C)c1-c1cccc(C(=S)Nc2ccc(-c3ncn(-c4ccc(OC(F)(F)F)cc4)n3)cc2)c1 [F46, 2′,6′-dimethyl-N-(4-(1-(4-(trifluoromethoxy)phenyl)-1H-1,2,4-triazol-3-yl)phenyl)-[1,1′-biphenyl]-3-carbothioamide] | D (No activity noticed in this bioassay) | 0 | 0 to 50 |  | 
COc1ccccc1-c1cc(C(=O)Nc2ccc(-c3ncn(-c4ccc(OC(F)(F)C(F)(F)F)cc4)n3)cc2)ccc1F [F7, 6-Fluoro-2′-methoxy-N-(4-(1-(4-(perfluoroethoxy)phenyl)-1H-1,2,4-triazol-3-yl)phenyl)-[1,1′-biphenyl]-3-carboxamide] | D (No activity noticed in this bioassay) | 50 to 100 | 50 to 100 |  | 
COc1ccccc1-c1cccc(C(=O)N(C)c2ccc(-c3ncn(-c4ccc(OC(F)(F)F)cc4)n3)cc2)c1 [F19, 2′-methoxy-N-methyl-N-(4-(1-(4-(trifluoromethoxy)phenyl)-1H-1,2,4-triazol-3-yl)phenyl)-[1,1′-biphenyl]-3-carboxamide] | A (80-100) | 50 to 100 | 50 to 100 |  | 
COc1ccccc1-c1cc(C(=O)N(C(C)=O)c2ccc(-c3ncn(-c4ccc(OC(F)(F)F)cc4)n3)cc2)ccc1F [F67, N-acetyl-6-fluoro-2′-methoxy-N-(4-(1-(4-(trifluoromethoxy)phenyl)-1H-1,2,4-triazol-3-yl)phenyl)-[1,1′-biphenyl]-3-carboxamide] | A (80-100) | 50 to 100 | 50 to 100 |  | 
O=C(NCCc1ccc(-c2ncn(-c3ccc(OC(F)(F)F)cc3)n2)cc1)c1ccc(F)c(-c2ccccc2)c1 [F51, 6-Fluoro-N-(4-(1-(4-(trifluoromethoxy)phenyl)-1H-1,2,4-triazol-3-yl)phenethyl)-[1,1′-biphenyl]-3-carboxamide] | D (No activity noticed in this bioassay) | 0 | 50 to 100 |  | 
COc1ccccc1-c1cc(C(=O)NCCc2ccc(-c3ncn(-c4ccc(OC(F)(F)F)cc4)n3)cc2)ccc1F [F54, 6-Fluoro-2′-methoxy-N-(4-(1-(4-(trifluoromethoxy)phenyl)-1H-1,2,4-triazol-3-yl)phenethyl)-[1,1′-biphenyl]-3-carboxamide] |  | 50 to 100 | 50 to 100 |  | 
